Experiments:
Dialister [1] = assay: In vitro fermentation study 2: intestinal batch fermentation with fecal suspension, 16S rRNA Illumina sequencing and flow cytometry; type: cell-based, Dialister spp.; details: fermentation supernatant at 24 h, donor C, FIG. 1B
Description: (§1) At the start of this intestinal batch fermentation incubation, all test ingredients were added from stock solutions to the modified nutritional medium, containing (g/l): 2.5 K2HPO4, 10.9 KH2PO4, 2 NaHCO3, 2 yeast extract, 2 peptone, 1 mucin, 0.5 cystein, 2 Tween 80, 2 glucose, 2 starch, 2 cellobiose, 0.1 NaCl, 0.01 MgSO4·7H2O, 0.01 CaCl2·6H2O, 0.05 hemin, 0.5 bile salts.
The following compounds were added from stock solutions prepared in water: • Beta-carotene, • Vitamin B3, • Vitamin B5, • Vitamin B7, • Fructooligosaccharides (positive control)
(§2) As a source of the microbial community, freshly prepared fecal suspension from a donor was added to the reactors. […] All tests, except the blanks, were performed in single repetition. Incubation conditions were 48 h at 37° C., under shaking (90 rpm) and anaerobic conditions.
Microbial composition: Illumina sequencing was performed at the start and after 24 h of incubation. The technique targets the 16S rRNA gene that consists of variable and conserved regions, spread over the gene. Due to their key role in protein expression, the conserved regions are characterized by very low evolutionary rates.
The methodology applied involves primers that span 2 hypervariable regions (V3-V4) of the 16S rRNA gene. Using a pair-end sequencing approach, sequencing of 2×250 bp results in 424 bp amplicons. Such fragments are taxonomically more informative as compared to smaller fragments. Samples that were analyzed with Illumina sequencing were also analyzed with flow cytometry to determine the number of total bacterial cells, thus allowing to convert the proportional values obtained with Illumina into absolute quantities. Samples were analyzed on a BDFacs verse. The samples were run using the high flow rate. Bacterial cells were separated from medium debris and signal noise by applying a threshold level of 200 on the SYTO channel. Proper parent and daughter gates were set to determine all populations.

Dialister [2] = assay: In vitro fermentation study 1: intestinal batch fermentation with fecal suspension, shotgun metagenome sequencing; type: cell-based, Dialister spp.; details: fermentation supernatant at 24 hours; all tested concentrations (0.2x, 1x, 5x); FIG. 1A
Description: as §1, with “cysteine,” for “cystein,”
The following compounds were added from stock solutions prepared in water for vitamin B2 and B9, and in ethanol for vitamin K1, DHA and EPA:
as §2, with “Each compound was tested in three different concentrations. As” for “As”
Microbial composition: Total DNA was extracted from all fermentation samples collected throughout the study using the QIAamp DNA stool minikit (Qiagen, Crawley, United Kingdom) according to the manufacturer's instructions, apart from addition of a bead-beating step and increasing the lysis temperature to 95° C. as described previously. After DNA isolation, DNA was quantified using the Qubit High Sensitivity DNA assay (Thermo Fisher). Whole metagenome libraries were then prepared using the Illumina Nextera XT kit (Illumina) in accordance with the manufacturer's instructions, with the following modifications: Firstly, tagmentation time was increased to 7 min and secondly, following incorporation of indices and Ampure purification of the products, the samples were each individually sized by running on an Agilent High Sensitivity Chip (Agilent) and quantified using the Qubit High Sensitivity DNA assay (Thermo Fisher) in accordance with Teagasc Sequencing Platform SOPs. […] Delivered raw FASTQ sequence files were quality checked as follows: poor quality and duplicate read removal, as well as trimming was implemented using a combination of SAM and Picard tools. Taxonomy was assigned to the reads using the Metaphlan2 software.

fecal Dialister = assay: Clinical study: randomized, double-blind, placebo-controlled study of colon-targeted vitamins, fecal microbial composition; type: in vivo; details: human, colon-release capsule once daily for four weeks, fecal samples; FIG. 1C
From the text: Twelve participants were allocated to each of the six vitamin groups, and 24 participants allocated to the placebo group. All 96 participants completed the intervention. To be considered eligible for enrollment into the study, participants have to be able to give written informed consent; be aged between 20 and 50 years of age; have a BMI of between 18.5-30 Kg/m2; have a stable body weight (<5% change) over the past 3-months; be in generally good health, as determined by the investigator; have not consumed dietary supplements, prebiotic, probiotic, dietary or fiber-rich supplements within 4 weeks prior to baseline visit and be willing to avoid these supplements until the end of the study; be willing to avoid liver consumption for the duration for the study, be willing to maintain their current level of physical activity for the duration of the study; and be willing to consume the IP daily for the duration of the study. […] Before the randomization visit, participants food frequency questionnaires were analyzed to ensure their typical fiber intake is <30 g fiber/day. […] At the baseline visit (Visit 2), participants retuned a fecal samples collected in the previous 48 hours and eligibility was assessed. […] Participants returned their IP and compliance was assessed. […]

Compound | Dialister relative abundances compared to control (Dialister [1]; all tested concentrations) | Dialister relative abundances compared to control (Dialister [2]) | further results
CC1=C(/C=C/C(C)=C/C=C/C(C)=C/C=C/C=C(C)/C=C/C=C(C)/C=C/C2=C(C)CCCC2(C)C)C(C)(C)CCC1 [beta-carotene, Beta-carotene] | increase |  | 
Cc1cc2nc3c(=O)[nH]c(=O)nc-3n(C[C@H](O)[C@H](O)[C@H](O)CO)c2cc1C [vitamin B2, Riboflavin] |  | substantial increase | 
NC(=O)c1cccnc1 [vitamin B3, Niacinamide] | no distinct increase |  | 
CC(C)(CO)[C@@H](O)C(=O)NCCC(=O)O [vitamin B5, Pantothenic acid] |  |  | Dialister relative abundances compared to control (Dialister [1]; at 0.2× and 5×): increase
O=C(O)CCCC[C@@H]1SC[C@@H]2NC(=O)N[C@@H]21 [vitamin B7, Biotin] | no distinct increase |  | 
Nc1nc2ncc(CNc3ccc(C(=O)N[C@@H](CCC(=O)O)C(=O)O)cc3)nc2c(=O)[nH]1 [vitamin B9, Folic acid] |  | no distinct increase | 
C=C1CC[C@H](O)C/C1=C/C=C1\CCC[C@]2(C)[C@@H]([C@H](C)CCCC(C)C)CC[C@@H]12 [vitamin D3, cholecalciferol] |  |  | Dialister relative abundance compared to placebo (fecal Dialister): increase
CC1=C(C/C=C(\C)CCC[C@H](C)CCC[C@H](C)CCCC(C)C)C(=O)c2ccccc2C1=O [vitamin K1] |  | substantial increase | 
vitamin A |  |  | Dialister relative abundance compared to placebo (fecal Dialister): increase
